Measurements taken from US20150065416A1, “NOVEL DRUG COMBINATION” (FAB PHARMA SAS, priority 2013, published 2015).

Experiments:
Format in all cases: cell-based, Acinetobacter baumannii
[1] = test system: A. baumannii isolates; experiment: Time kill study (Example 4); conditions: for Time to kill 99.9%: alone
Procedure: A total of 12 isolates were tested (three per sub-group either susceptible, meropenem-resistant, amikacin-resistant or colistin-resistant). Two combinations were tested per isolate. Time-kill kinetics were performed by testing compound (I) and an additional antibacterial agent (amikacin, colistin and meropenem) individually at 1× and 4× the corresponding MIC of each antibacterial agent. […] Samples were taken at 0, 2, 4, 8 and 24 hours in order to determine colony forming units (CFU/mL).
Time-kill studies were carried out as described in General Procedures using combinations of compound (I) with amikacin, meropenem and colistin, respectively.

[2] = test system: A. baumannii isolates; experiment: Checkerboard testing (compound (I)/antibacterial agent interaction, FIC index)
Procedure: Checkerboard interaction studies were performed using 5 isolates from each of the sub-groups and time kill studies were performed using 3 isolates from each sub-group.
Checkerboards (20 isolates, 5 per sub-group) were prepared so as to contain multiple concentrations of compound (I) with different additional antibacterial agents (amikacin, gentamicin, colistin, meropenem and tobramycin) as follows:
Serial two-fold dilutions of the antimicrobial agents alone or in combination in wells of 96 well microtiter plates were inoculated with the appropriate inoculum so that each well contained approximately 4-5×10^4 CFU/ml. Plates were incubated at 35° C. for 16-20 hours. Combination concentrations were tested between 0.25×MIC and 2×MIC. Growth and sterility controls were also included in each plate.
Synergy, indifference and antagonism were calculated based upon the use of the fractional inhibitory concentration (FIC) indices as described by Pillai, Moellering & Eliopoulos (2005) whereby:
Synergism=FIC index of ≦0.5 Indifference=FIC index >1 but ≦4 Additivity >0.5 to 1 Antagonism=FIC index of >4
Checkerboard studies were carried out as described in General Procedures using twenty different A. baumannii isolates with 5 per sub-group of: susceptible, amikacin-resistant, colistin-resistant and meropenem-resistant.

[3] = test system: A. baumannii isolates; experiment: Individual antimicrobial susceptibility testing (MIC, broth microdilution, CLSI)
Procedure: In the antimicrobial susceptibility testing 77 isolates of A. baumannii (from 2010) in the following sub-groups were tested: • 22 isolates generally susceptible to antimicrobial agents (“Sus”) • 20 carbapenem-resistant isolates (e.g. “MPM-R”) • 20 aminoglycoside-resistant isolates (e.g. “AMK-R”) • 15 colistin-resistant isolates. (e.g. “COL-R”)
Minimum inhibitory concentration (MIC) endpoints were determined by broth microdilution according to CLSI guidelines (CLSI, M7-A8 & M100-S22, 2012). Panels were prepared at IHMA using cation-adjusted Mueller-Hinton broth. Colonies were taken directly from a second-pass culture plate and prepared to a suspension equivalent of the 0.5 McFarland standard using normal saline.
Testing was carried out as described in the General Procedures to determine minimum inhibitory concentration (MIC) end points for compound (I), amikacin, colistin, gentamicin, meropenem and tobramycin, for 77 A. baumannii isolates. Under the “MIC (μg/ml)” heading, the first column (Range) indicates the MIC end points for the particular number (N) of isolates tested, the second column (50%) provides an estimate of the concentration that inhibits 50% (MIC50) of bacterial isolates tested, and the third column (90%) provides an estimate of the concentration that inhibits 90% of the bacterial isolates tested.

[4] = test system: A. baumannii CIP 5377, CIP 7034, AYE, SAN, RCH; experiment: Antimicrobial susceptibility testing (MIC, broth microdilution, EUCAST; Example 5)
Excerpt: A. baumannii CIP 5377 (ATCC® 17978): low cephalosporinase producing strain, susceptible to meropenem and amikacin, isolated in an infected patient
A. baumannii CIP 7034: low cephalosporinase producing strain, susceptible to meropenem and amikacin A. baumannii AYE ATCC® BAA1710™: extended spectrum beta-lactamase producing strain susceptible to meropenem and resistant to amikacin
A. baumannii SAN-94040 (SAN): cephalosporinase-overproducing strain, susceptible to meropenem and intermediate to amikacin and resistant to fluoroquinolones, isolated from blood cultures of an intensive care patient with nosocomial pneumonia from North Africa (Algeria).
A. baumannii RCH-69: cephalosporinase producing strain; low susceptibility to imipenem and resistant to amikacin.

[5] = A. baumannii 441142, colistin-resistant
[6] = A. baumannii 441160, colistin-resistant
[7] = A. baumannii 463996, colistin-resistant
[8] = A. baumannii 466936, colistin-resistant
[9] = A. baumannii 517303, colistin-resistant
[10] = A. baumannii 618649, meropenem-resistant
[11] = A. baumannii 625917, meropenem-resistant
[12] = A. baumannii 628760, susceptible
[13] = A. baumannii 637723, amikacin-resistant
[14] = A. baumannii 638115, amikacin-resistant
[15] = A. baumannii 650216, meropenem-resistant
[16] = A. baumannii 655932, amikacin-resistant
[17] = A. baumannii 661954, amikacin-resistant
[18] = A. baumannii 667848, meropenem-resistant
[19] = A. baumannii 668116, susceptible
[20] = A. baumannii 668239, amikacin-resistant
[21] = A. baumannii 670348, susceptible
[22] = A. baumannii 671050, meropenem-resistant
[23] = A. baumannii 672190, susceptible
[24] = A. baumannii 674340, susceptible
[25] = Amikacin-resistant isolates, N=20
[26] = Colistin-resistant isolates, N=15
[27] = Meropenem-resistant isolates, N=20

## colistin
[1]; AMK-R-1, 1xMIC
  Time to kill 99.9%: 1.4 h
[1]; AMK-R-1, 4xMIC
  Time to kill 99.9%: 1.3 h
[1]; AMK-R-2, 1xMIC
  Time to kill 99.9%: 2.3 h
[1]; AMK-R-2, 4xMIC
  Time to kill 99.9%: 1.8 h
[1]; AMK-R-3, 1xMIC
  Time to kill 99.9%: >24 h^
[1]; AMK-R-3, 4xMIC
  Time to kill 99.9%: 2.9 h
[1]; COL-R-1, 1xMIC
  Time to kill 99.9%: 2.8 h
[1]; COL-R-1, 4xMIC
  Time to kill 99.9%: 2.3 h
[1]; COL-R-2, 1xMIC
  Time to kill 99.9%: >24 h^
[1]; COL-R-2, 4xMIC
  Time to kill 99.9%: >24 h
[1]; COL-R-3, 1xMIC
  Time to kill 99.9%: 2.7 h
[1]; COL-R-3, 4xMIC
  Time to kill 99.9%: 2.1 h
[1]; MPM-R-1 (second line, Table 8 r14), 1xMIC
  Time to kill 99.9%: 1.3 h
[1]; MPM-R-1 (second line, Table 8 r14), 4xMIC
  Time to kill 99.9%: 1.6 h
[1]; MPM-R-1, 1xMIC
  Time to kill 99.9%: 5.0 h
[1]; MPM-R-1, 4xMIC
  Time to kill 99.9%: 8.1 h
[1]; MPM-R-3, 1xMIC
  Time to kill 99.9%: 2 h
[1]; MPM-R-3, 4xMIC
  Time to kill 99.9%: 5.1 h
[1]; Sus-1, 1xMIC
  Time to kill 99.9%: >24 h^
[1]; Sus-1, 4xMIC
  Time to kill 99.9%: >24 h
[1]; Sus-2, 4xMIC
  Time to kill 99.9%: 6.3 h
[1]; Sus-3, 1xMIC
  Time to kill 99.9%: 1.6 h
[1]; Sus-3, 4xMIC
  Time to kill 99.9%: 3.6 h
[1]; alone at 1× or 4×MIC
  effect in time-kill studies when tested alone: generally bactericidal
[1]; isolate AMK-R-1
  MIC: 0.5 µg/mL
[1]; isolate AMK-R-2
  MIC: 0.5 µg/mL
[1]; isolate AMK-R-3
  MIC: 0.25 µg/mL
[1]; isolate COL-R-1
  MIC: 8 µg/mL
[1]; isolate COL-R-2
  MIC: 4 µg/mL
[1]; isolate COL-R-3
  MIC: 16 µg/mL
[1]; isolate MPM-R-1
  MIC: 0.25 µg/mL
[1]; isolate MPM-R-3
  MIC: 1 µg/mL
[1]; isolate Sus-1
  MIC: 1 µg/mL
[1]; isolate Sus-2
  MIC: 0.5 µg/mL
[1]; isolate Sus-3
  MIC: 0.25 µg/mL
[1]; isolate printed MPM-R-1 (second such line of Table 8, r14)
  MIC: 1 µg/mL
[2]; [5]
  MIC: 8 µg/mL
[2]; [6]
  MIC: 4 µg/mL
[2]; [7]
  MIC: 4 µg/mL
[2]; [8]
  MIC: 8 µg/mL
[2]; [9]
  MIC: >1024 µg/mL
[2]; [10]
  MIC: 0.5 µg/mL
[2]; [11]
  MIC: 0.5 µg/mL
[2]; [12]
  MIC: 0.5 µg/mL
[2]; [13]
  MIC: 0.5 µg/mL
[2]; [14]
  MIC: 0.5 µg/mL
[2]; [15]
  MIC: 0.25 µg/mL
[2]; [16]
  MIC: 0.5 µg/mL
[2]; [17]
  MIC: 1 µg/mL
[2]; [18]
  MIC: 0.5 µg/mL
[2]; [19]
  MIC: 1 µg/mL
[2]; [20]
  MIC: 0.5 µg/mL
[2]; [21]
  MIC: 0.5 µg/mL
[2]; [22]
  MIC: 0.5 µg/mL
[2]; [23]
  MIC: 0.5 µg/mL
[2]; [24]
  MIC: 0.5 µg/mL
[3]; 77 isolates, FIG. 1 and 2
  mode MIC: lowest mode MIC
[3]; All isolates, N=77
  MIC 50%: 0.5 µg/mL
  MIC 90%: 8 µg/mL
[3]; [25]
  MIC 50%: 0.5 µg/mL
  MIC 90%: 1 µg/mL
  MIC Range: 0.25 to 2 µg/mL
[3]; [26]
  MIC 50%: 8 µg/mL
  MIC 90%: >32 µg/mL
[3]; [27]
  MIC 50%: 0.5 µg/mL
  MIC 90%: 1 µg/mL
  MIC Range: 0.25 to 1 µg/mL
[3]; Susceptible isolates, N=22
  MIC 50%: 0.5 µg/mL
  MIC 90%: 0.5 µg/mL
  MIC Range: 0.06 to 1 µg/mL
[4]; A. baumannii AYE
  MIC: 1 µg/mL
[4]; A. baumannii CIP 5377
  MIC: 0.5 µg/mL
[4]; A. baumannii CIP 7034
  MIC: 0.5 µg/mL
[4]; A. baumannii RCH
  MIC: 0.5 µg/mL
[4]; A. baumannii SAN
  MIC: 1 µg/mL

## gentamicin
[2]; [5]
  MIC: >1024 µg/mL
[2]; [6]
  MIC: >1024 µg/mL
[2]; [7]
  MIC: 2 µg/mL
[2]; [8]
  MIC: 4 µg/mL
[2]; [9]
  MIC: 512 µg/mL
[2]; [10]
  MIC: 0.5 µg/mL
[2]; [11]
  MIC: 1 µg/mL
[2]; [12]
  MIC: 1 µg/mL
[2]; [13]
  MIC: 128 µg/mL
[2]; [14]
  MIC: 4 µg/mL
[2]; [15]
  MIC: 64 µg/mL
[2]; [16]
  MIC: 128 µg/mL
[2]; [17]
  MIC: 16 µg/mL
[2]; [18]
  MIC: 256 µg/mL
[2]; [19]
  MIC: 0.5 µg/mL
[2]; [20]
  MIC: 1024 µg/mL
[2]; [21]
  MIC: 1 µg/mL
[2]; [22]
  MIC: 8 µg/mL
[2]; [23]
  MIC: 1 µg/mL
[2]; [24]
  MIC: 1 µg/mL
[3]; All isolates, N=77
  MIC 50%: 32 µg/mL
  MIC 90%: >32 µg/mL
[3]; [25]
  MIC 50%: >32 µg/mL
  MIC 90%: >32 µg/mL
[3]; [26]
  MIC 50%: 32 µg/mL
  MIC 90%: >32 µg/mL
[3]; [27]
  MIC 50%: >32 µg/mL
  MIC 90%: >32 µg/mL
[3]; Susceptible isolates, N=22
  MIC 50%: 1 µg/mL
  MIC 90%: 2 µg/mL
  MIC Range: 0.06 to 2 µg/mL
